{"source": "patent US9884048B2", "about": "“ERK inhibitors” (Merck Sharp & Dohme Corp., priority 2014, dated 2018)", "data": [{"target": "phosphorylated active hERK2 enzyme (Homo sapiens (Human), UniProt P28482)", "sequence (P28482 whole entry)": "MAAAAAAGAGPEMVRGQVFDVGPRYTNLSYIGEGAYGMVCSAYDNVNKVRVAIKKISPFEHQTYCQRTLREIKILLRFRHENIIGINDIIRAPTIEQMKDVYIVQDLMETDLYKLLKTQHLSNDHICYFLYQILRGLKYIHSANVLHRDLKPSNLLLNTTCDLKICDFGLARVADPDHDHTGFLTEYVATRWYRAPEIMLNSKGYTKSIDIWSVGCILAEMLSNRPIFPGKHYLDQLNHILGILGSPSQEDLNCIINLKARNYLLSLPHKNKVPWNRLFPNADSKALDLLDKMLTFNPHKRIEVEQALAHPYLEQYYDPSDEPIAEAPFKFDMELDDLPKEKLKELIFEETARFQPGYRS", "details": "not given", "units": {"IC50": "nM"}, "values": [{"molecule": "Cc1cc(-n2ncc3cc(NC(=O)N[C@H]4CN(C)C[C@@H]4c4cccc(F)c4)ncc32)ccn1", "note": "[Example 19, 1-[(3R,4S)-4-(3-fluorophenyl)-1-methylpyrrolidin-3-yl]-3-[1-(2-methylpyridin-4-yl)-1H-pyrazolo[3,4-c]pyridin-5-yl)urea]", "IC50": 3.07}]}, {"target": "phosphorylated active hERK2 enzyme (Homo sapiens (Human), UniProt P28482)", "details": "read-out: ERK2 IC50; IMAP-FP assay; 0.5 nM hERK2, 30 μM ATP; 10 point titration, 3 μM starting concentration", "units": {"IC50": "nM"}, "values": [{"molecule": "O=C(Nc1cc2cnn(-c3ccncc3)c2cn1)NC1CCCc2ccccc21", "note": "(centres unmarked) [Example 10, 1-(1-pyridin-4-yl-1H-pyrazolo[3,4-c]pyridin-5-yl)-3-(1,2,3,4-tetrahydronaphthalen-1-yl)urea]", "IC50": 34.7}, {"molecule": "O=C(NCc1ccc(Cl)cc1Cl)Nc1cc2cnn(-c3ccncc3)c2cn1", "note": "[Example 11, 1-(2,4-dichlorobenzyl)-3-(1-pyridin-4-yl-1H-pyrazolo[3,4-c]pyridin-5-yl)urea]", "IC50": 26}, {"molecule": "O=C(NCc1ccc(Cl)c(Cl)c1)Nc1cc2cnn(-c3ccncc3)c2cn1", "note": "[Example 12, 1-(3,4-dichlorobenzyl)-3-(1-pyridin-4-yl-1H-pyrazolo[3,4-c]pyridin-5-yl)urea]", "IC50": 0.9}, {"molecule": "O=C(NCc1ccc(Cl)c(Cl)c1)Nc1cc2cnn(-c3ccc(F)cc3)c2cn1", "note": "[Example 13, 1-(3,4-dichlorobenzyl)-3-[1-(4-fluorophenyl)-1H-pyrazolo[3,4-c]pyridin-5-yl]urea]", "IC50": 19.7}, {"molecule": "Cc1cc(-n2ncc3cc(NC(=O)NCCN(C)C)ncc32)ccn1", "note": "[Example 15, 1-(2-(dimethylamino)ethyl)-3-(1-(2-methylpyridin-4-yl)-1H-pyrazolo[3,4-c]pyridin-5-yl)urea]", "IC50": 1430}, {"molecule": "Cc1cc(-n2ncc3cc(NC(=O)N[C@H]4CN(C)C[C@@H]4c4ccccc4Cl)ncc32)ccn1", "note": "[Example 16, 1-[(3R,4S)-4-(2-chlorophenyl)-1-methylpyrrolidin-3-yl]-3-[1-(2-methylpyridin-4-yl)-1H-pyrazolo[3,4-c]pyridin-5-yl]urea]", "IC50": 0.952}, {"molecule": "Cc1cc(-n2ncc3cc(NC(=O)N[C@H]4COC[C@@H]4c4ccccc4)ncc32)ccn1", "note": "[Example 17, 1-[1-(2-methylpyridin-4-yl)-1H-pyrazolo[3,4-c]pyridin-5-yl]-3-[(3R,4R)-4-phenyltetrahydrofuran-3-yl]urea]", "IC50": 1.83}, {"molecule": "Cc1cc(-n2ncc3cc(NC(=O)N[C@H]4CN(C)C[C@@H]4c4ccc(F)c(Cl)c4)ncc32)ccn1", "note": "[Example 18, 1-[(3R,4S)-4-(3-chloro-4-fluorophenyl)-1-methylpyrrolidin-3-yl]-3-[1-(2-methylpyridin-4-yl)-1H-pyrazolo[3,4-c]pyridin-5-yl)urea]", "IC50": 2.14}, {"molecule": "Cc1cc(-n2ncc3cc(NC(=O)N[C@@H]4CCN(C)C4)ncc32)ccn1", "note": "[Example 20, 1-[1-(2-methylpyridin-4-yl)-1H-pyrazolo[3,4-c]pyridin-5-yl]-3-[(3R)-1-methylpyrrolidin-3-yl)urea]", "IC50": 50.5}, {"molecule": "Cc1cc(-n2ncc3cc(NC(=O)N[C@H]4CCN(C)C4)ncc32)ccn1", "note": "[Example 21, 1-[1-(2-methylpyridin-4-yl)-1H-pyrazolo[3,4-c]pyridin-5-yl]-3-[(3S)-1-methylpyrrolidin-3-yl)urea]", "IC50": 767}, {"molecule": "Cc1cc(-n2ncc3cc(NC(=O)NC4CC(=O)N(C)C4)ncc32)ccn1", "note": "(centres unmarked) [Example 22, 1-(1-methyl-5-oxopyrrolidin-3-yl)-3-[1-(2-methylpyridin-4-yl)-1H-pyrazolo[3,4-c]pyridin-5-yl)urea]", "IC50": 181}, {"molecule": "Cc1cc(-n2ncc3cc(NC(=O)NC4CCN(C)C4=O)ncc32)ccn1", "note": "(centres unmarked) [Example 23, 1-(1-methyl-2-oxopyrrolidin-3-yl)-3-[1-(2-methylpyridin-4-yl)-1H-pyrazolo[3,4-c]pyridin-5-yl)urea]", "IC50": 314}, {"molecule": "Cc1cc(-n2ncc3cc(NC(=O)N[C@H]4CN(C)C[C@@H]4[C@@H]4CCCOC4)ncc32)ccn1", "note": "[Example 24, 1-[1-(2-methylpyridin-4-yl)-1H-pyrazolo[3,4-c]pyridin-5-yl]-3-{(3R,4S)-1-methyl-4-[(3S)-tetrahydro-2H-pyran-3-yl]pyrrolidin-3-yl}urea]", "IC50": 140}]}]}
